Test results from patent US20080287653A1, “METHOD FOR PRODUCING INHIBITORS AND INHIBITORS FORMED THEREFROM” (THE UNIVERSITY OF AKRON, priority 2007, published 2008).
Non-standard residues stand in square brackets, D forms with d. Residues, ends and D or L forms follow the SMILES beside them. Lys(Thioacetyl) = CC(=S)NCCCC[C@H](N)C(=O)O

Assays:
SIRT1, SIRT2, and SIRT3 = assay: Dethioacetylation of inhibitor peptides under the sirtuin inhibition assay conditions; type: biochemical, human; settings: same assay conditions as SIRT1/SIRT2/SIRT3 inhibition assays
Method: Inhibition assays with purified SIRT1, SIRT2, and SIRT3. GST-SIRT1 that could be produced in a laboratory was used for the SIRT1 inhibition assay. SIRT2 and SIRT3 are obtainable from commercial sources known to those skilled in the art. Consistent HPLC-based assay procedures were used for the inhibition assays with SIRT1, SIRT2, and SIRT3. In brief, an inhibition assay solution had the following components: 25 mM (or 50 mM for SIRT2 assay) Tris.HCl (pH 8.0) 137 mM NaCl, 2.7 mM KCl, 1 mM MgCl2, 1 mg/mL BSA (SIGMA Cat. #A3803 with reduced fatty acid content, for SIRT2 assay only), 0.5 mM β-NAD^+, 0.3 mM peptide substrate (peptide 1b for SIRT1 and SIRT2 assays; peptide 3b for SIRT3 assay), an inhibitor (peptide 1a, 2, or 3a) with varied concentrations including 0, and an enzyme (GST-SIRT1, 0.15 μM; SIRT2, 0.3 μM; or SIRT3, 2.0 μM). […] An enzymatic reaction was initiated by the addition of an enzyme at 37° C. and was allowed to be incubated at 37° C.: 10 minutes as follows: for SIRT1 assay, or 60 minutes for SIRT2 and SIRT3 assays. Incubation was quenched at the indicated time with the following stop solution: 100 mM HCl and 0.16 M acetic acid. The conversion of the limiting substrate to the product was maintained at ≦12%. The quenched assay solutions were directly injected into a reversed-phase HPLC C18 column (100 Å, 0.46×25 cm), eluting with the following gradients of ddH2O containing 0.05% (v/v) trifluoroacetic acid (mobile phase A) and acetonitrile containing 0.05% (v/v) trifluoroacetic acid (mobile phase B): linear increase from 0% B to 35% B (for SIRT1 assay) or 40% B (for SIRT2 and SIRT3 assays) from 0-40 minutes (1 mL/min), and UV monitoring at 214 nm. The enzymatic deacetylation products (peptide 1c in SIRT1 and SIRT2 assays; peptide 3c in SIRT3 assay) were confirmed by their comigration with the chemically synthesized authentic samples and by MALDI-TOF mass spectrometric analysis, and were quantified by HPLC peak integration and comparison with those of synthetic authentic samples. […] All peptide stock solutions were prepared in ddH2O. […]

HDAC8 = target: T1, HDAC8 (Homo sapiens, UniProt Q9BY41); assay: HPLC-based assay with purified HDAC8 (de(thio)acetylation of peptides); type: biochemical; set-up: key to HDAC8 (sensitive / resistant to HDAC8): +: Sensitive to HDAC8; —: Resistant to HDAC8; settings: for formation of de(thio)acetylated peptide product by HDAC8: 0.3 mM peptide, 1.5 μM HDAC8, 2 hours at room temperature; for HDAC8 (sensitive / resistant to HDAC8): enzymatic dethioacetylation by HDAC8
T1 construct: purchased
T1 sequence (Q9BY41 1-377): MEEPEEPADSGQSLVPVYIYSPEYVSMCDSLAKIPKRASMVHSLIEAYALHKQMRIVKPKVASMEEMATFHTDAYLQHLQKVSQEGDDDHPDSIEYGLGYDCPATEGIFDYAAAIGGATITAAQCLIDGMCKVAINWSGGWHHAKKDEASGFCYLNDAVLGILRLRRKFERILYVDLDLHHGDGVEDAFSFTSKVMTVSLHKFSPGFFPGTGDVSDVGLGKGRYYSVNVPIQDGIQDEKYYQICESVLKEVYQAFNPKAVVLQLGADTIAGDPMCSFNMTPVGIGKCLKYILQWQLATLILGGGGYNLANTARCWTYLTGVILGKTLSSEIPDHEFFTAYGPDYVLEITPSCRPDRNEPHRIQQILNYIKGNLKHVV
Method: To test the foregoing premise, peptides 1b, 2, and 3a were allowed to be incubated for 2 hours at room temperature in the HDAC8 assay buffer in a HPLC-based HDAC8 assay. […] FIG. 5 provides representative HPLC chromatograms from HDAC8 assays with peptides 1b, 2, and 3a. All assays were performed in duplicate and essentially the same HPLC chromatograms were obtained for the duplicates. The small peak with tR˜27 minutes in the second chromatogram was from a minor impurity in the purified peptide 2 sample, rather than the dethioacetylated product. The lack of detectable dethioacetylation of peptide 3a was apparent from the absence of a peak with tR˜34 minutes, shown for peptide 3c in the third chromatogram.
Assay with purified HDAC8. The purified HDAC8 could be obtained from a commercial source for use with a HPLC-based HDAC8 assay. In brief, a HDAC8 assay solution had the following components: 25 mM Tris.HCl (pH 8.0), 137 mM NaCl, 2.7 mM KCl, 1 mM MgCl2, 1 mg/mL BSA (SIGMA Cat. #A3803 with reduced fatty acid content), 0.3 mM peptide 1b, 2, or 3a, and 1.5 μM HDAC8. […] An enzymatic reaction was initiated by the addition of HDAC8 at room temperature and was allowed to be incubated at room temperature for 2 hours before being quenched with the following stop solution: 1.0 M HCl and 0.16 M acetic acid. The quenched assay solutions were directly injected into a reversed-phase HPLC C18 column (100 Å, 0.46×25 cm), eluting with the following gradients of ddH2O containing 0.05% (v/v) trifluoroacetic acid (mobile phase A) and acetonitrile containing 0.05% (v/v) trifluoroacetic acid (mobile phase B): linear increase from 0% B to 35% B (for the assay with peptide 2 or 1b) or 40% B (for the assay with peptide 3a or […]) from 0-40 minutes (1 mL/min), and UV monitoring at 214 nm. […] The enzymatically formed peptide 1c was confirmed by its comigration with the chemically synthesized authentic sample and by MALDI-TOF mass spectrometric analysis, and was quantified by HPLC peak integration and comparison with that of synthetic authentic sample.

Row | formation of de(thio)acetylated peptide product by HDAC8 (HDAC8) | HDAC8 (sensitive / resistant to HDAC8) (HDAC8) | Structure (SMILES) | formation of dethioacetylated peptide under sirtuin inhibition assay conditions (SIRT1, SIRT2, and SIRT3)
1 | no detectable formation | —^d | CC[C@H](C)[C@H](NC(=O)[C@@H](NC(=O)[C@H](CCCCNC(C)=S)NC(=O)[C@H](CC(=O)O)NC(=O)[C@H](CO)NC(=O)[C@@H]1CCCN1C(=O)[C@@H](N)CCSC)[C@@H](C)O)C(=O)NCC(=O)NCC(=O)O [Peptide 2] (H-MPSD[Lys(Thioacetyl)]TIGG-OH) | detectable formation
2 | no detectable formation | — | CC[C@H](C)[C@H](NC(=O)[C@@H](NC(=O)[C@H](CCCCN)NC(=O)[C@H](CCCNC(=N)N)NC(=O)[C@H](CC(C)C)NC(=O)[C@H](CC(C)C)NC(=O)[C@H](CCCNC(=N)N)NC(=O)[C@H](CCCNC(=N)N)NC(=O)[C@H](CCSC)NC(=O)[C@@H](NC(=O)[C@H](CCCCNC(C)=S)NC(=O)CNC(=O)[C@H](CO)NC(=O)[C@H](CCCNC(=N)N)NC(=O)[C@@H](NC(=O)[C@H](CCCCN)NC(=O)[C@@H]1CCCN1C(=O)[C@H](CC(C)C)NC(=O)[C@H](CCCNC(=N)N)NC(=O)[C@@H](N)CCCCN)[C@@H](C)O)C(C)C)[C@@H](C)CC)C(=O)O [Peptide 3a] (H-KRLPKTRSG[Lys(Thioacetyl)]VMRRLLRKII-OH) | did not give rise to detectable formation
